One compound from patent publication US9937192B2, “Combination therapy to treat mycobacterium diseases” (priority 2012, dated 2018) can be followed below.

Where a name gives a salt, the structure may show the parent alone. Read-outs that look alike come from different tables or passages of the source.

As usually defined, the MIC is the lowest concentration that inhibits growth of the organism.

One data set deals with M. avium. Nature of the data set: MIC in bacterial broth culture (7H9 with ADC, visual or resazurin). It is filed as cell-based. As to conditions: Table 31, duplicate values. (Resazurin is reduced to fluorescent resorufin, in cell work by metabolically active cells.)
A short description of data set [1]: Seven-Day Oral (Gavage) Toxicity and Toxicokinetics Study in Rats. The class given is in vivo, Crl:CD(SD) rats. As to conditions: male rats. The text has this:
Seven-Day Oral (Gavage) Toxicity and Toxicokinetics Study in Rats
Crl:CD(SD) rats were obtained from Charles River Laboratories of Stone Ridge, N.Y. The animals were laboratory bred and experimentally naïve. Rats were chosen because they are a species that is commonly used for nonclinical toxicity evaluations.
Animals received the test article or vehicle by oral gavage for 7 consecutive days and were terminated the day following completion of dosing. The first day of dosing was designated as Day 1 of the study. The animals were evaluated for changes in clinical signs, body weight, and other parameters as described below.
The vehicle and test article were administered by oral gavage once daily for 7 consecutive days at a dose volume of 10 mL/kg body weight for Group A and Groups B-D, respectively. The test article and vehicle were administered by oral gavage twice daily, approximately 8 hours apart, for 7 consecutive days at a dose volume of 10 mL/kg body weight for Group E and Group F, respectively. The actual volume administered to each animal was calculated and adjusted based on the most recent body weight of each animal.
During the treatment period, daily cageside observations were made and recorded predose and postdose (following the first dose only). The postdosing observations made during treatment occurred at the following times based on Cmax/Tmax for the two compounds from previous studies:
Prior to start of dosing, body weights were measured for randomization on Day 1. During the treatment, body weights were measured on Day 1 and Day 7. In addition, fasted body weights were measured prior to necropsy for calculation of organ/body weight ratios.
Throughout the study, food consumption was measured daily starting 3 days prior to start of dosing.
Blood samples for evaluation of hematology, coagulation, and serum chemistry parameters were collected from all animals from the retro-orbital plexus (under CO2/O2 anesthesia, for the main study animals) or jugular vein cannula (for the toxicokinetic animals) prior to necropsy. Due to residual heparin used to keep the cannulas patent for the toxicokinetic animals, coagulation samples from these rats, were not able to be analyzed. The animals were fasted overnight prior to blood collection. On the day of blood collection for clinical pathology analyses, the animals were not necropsied until after the blood was collected and the samples judged to be acceptable by the clinical pathology group.
On the 1st and 7th day of dosing, blood samples (approximately 0.5 mL/sample) were collected from the jugular vein cannula for all toxicokinetic animals at the timepoints listed below into K3EDTA-containing tubes. […] Prior to each collection, a small sample of blood (with heparin blocking solution) was removed from the cannula and discarded. A new syringe was placed on the cannula, and the protocol-required sample was taken. The syringe with the blood sample was removed, and a new syringe with saline attached to the cannula. Blood volume was replaced with an equal volume of saline and then blocking solution placed in the cannula. Each animal was returned to its cage until the next collection timepoint.
For all animals euthanized at scheduled necropsies, the kidneys, liver, and prostate gland were weighed. Following weighing, an approximate 1 gram sample of liver and kidney was weighed, transferred to Precellys 7 mL CK28 Tissue Homogenizing tubes (Cat. No. 0904-01), snap-frozen, and analyzed.
For all animals scheduled for the terminal necropsy, the kidneys, liver, and prostate were embedded in paraffin, sectioned and stained with hematoxylin and eosin for further examination by light microscopy. For Groups A, D, E, and F only, the remaining tissues listed above were embedded in paraffin, sectioned and stained with hematoxylin and eosin for further examination by light microscopy. […]

In data set [2] the test system is nonreplicating M. tuberculosis. Nature of the data set: Low-Oxygen-Recovery Assay (LORA) MIC. It is filed as cell-based. As to conditions: Mycobacterium tuberculosis, read-out: LORA MIC. The text has this:
MIC Determination in the Low-Oxygen-Recovery Assay (LORA) for Nonreplicating M. tuberculosis
Screening for new antimicrobial agents is routinely conducted only against actively replicating bacteria. However, it is now widely accepted that a physiological state of non-replicating persistence (NRP) is responsible for antimicrobial tolerance in many bacterial infections. In tuberculosis, the key to shortening the 6-month regimen lies in targeting this NRP subpopulation. […] Cho S H, Want S, Wan B, Hwang C H, Pauli G F, Franzblau S G; “Low-Oxygen-Recovery Assay for High-Throughput Screening of Compounds against Nonreplicating Mycobacterium tuberculosis” Antimicrob Agents Chemother. 2007 April; 51(4): 1380-1385 doi: 10.1128/AAC.00055-06.

Setting [3] is: 300 mg/kg twice a day vs controls treated twice a day.

With `CCNC(=O)Nc1nc2cc(-c3cnc(C(C)(C)O)nc3)c(F)c([C@H]3CCCO3)c2[nH]1` [Compound 23A, methanesulfonic acid salt of 1-ethyl-3-[6-fluoro-5-[2-(1-hydroxy-1-methyl-ethyl)pyrimidin-5-yl]-7-[(2R)-tetrahydrofuran-2-yl]-1H-benzimidazol-2-yl]urea], the MIC with M. avium (Mycobacterium avium, M. avium 103, read-out: MIC) came to 0.12 mg/L; with M. avium (Mycobacterium avium, M. avium 3404.4, read-out: MIC), 0.23 mg/L; in the data set on M. avium (Mycobacterium avium, M. avium Far, read-out: MIC), 0.23 mg/L; in the data set on M. avium (M. avium 103), 0.23 mg/L; in data set [2] it was 0.25 mg/L. For the same compound, the AST entry in data set [1] (setting [3]) is “statistically higher”. Besides, in data set [1] (setting [3]), the “mean ALT” value is recorded as “statistically higher”. In data set [1] (setting [3]), the “mean calcium ion concentration (CA)” value is “statistically lower”. In data set [1] (7 days oral gavage), the “dose levels at which no adverse toxicity was demonstrated” value is not above 600 mg/kg/day. The “adverse observations or effects on mean body weight” value in data set [1] (7 days oral gavage, all dose groups) was “No adverse observations or effects on mean body weight”. In addition, the histopathological findings result in data set [1] (any dose regimen) is listed as “No test article-related histopathological findings”. The “NOEL (No-Observable-Effect-Level)” value in data set [1] (once a day for 7 days orally via gavage) came out at 100 mg/kg. For the same compound, in data set [1] (toxicokinetics), the “exposures for different dosage levels” value is listed as “dose related”. In addition, the Mean food consumption result in data set [1] (twice daily 300 mg/kg, not considered adverse) is reported as “reduced”.
